This passage reports EC50 results from patent US9663496B2, “AMPK-activating heterocyclic compounds and methods for using the same” (Rigel Pharmaceuticals, Inc., priority 2010, dated 2017).

SMILES strings stand for the structures.

Broadly, the EC50 is the concentration at which the effect is half-maximal.

For the test, the target named is AMPK. The test can be described thus: AMPK activation, enzyme-linked immunosorbent assay. In kind it is biochemical. To be noted: EC50 for AMPK activation, ELISA. On the procedure:
Compounds were assayed for their ability to activate AMPK using an enzyme-linked immunosorbent assay. Reagents and procedures for measuring AMPK activation are well known and kits for AMPK activation assays are commercially available.
Background: ELISA stands for enzyme-linked immunosorbent assay.
In turn, `O=C(c1ccc(C(=O)N2CCN(Cc3ccccc3)CC2)nc1)N1CCN(Cc2ccccc2)CC1` [Compound 73, pyridine-2,5-diylbis((4-benzylpiperazin-1-yl)methanone)] came in with an EC50 of 5000 to 10000 nM. Next, `O=C(NC1CCN(Cc2ccccc2)CC1)c1ccc(C(=O)N2CCN(Cc3ccccc3)CC2)nc1` [Compound 74, 6-(4-benzylpiperazine-1-carbonyl)-N-(1-benzylpiperidin-4-yl)nicotinamide]: under 500 nM; `N#Cc1ccc(CN2CCC(NC(=O)c3ccc(C(=O)N4CCN(C(=O)c5ccc(C(=O)NC6CCN(Cc7ccc(C#N)cc7)CC6)nc5)CC4)cn3)CC2)cc1` [Compound 75, 5,5′-(piperazine-1,4-diylbis(oxomethylene)) bis(N-(1-(4-cyanobenzyl)piperidin-4-yl)picolinamide)]: 1000 to 5000 nM. With `N#Cc1ccc(CN2CCC(NC(=O)c3ccc(C(=O)N4CCN(C(=O)c5ccc(F)cc5)CC4)cn3)CC2)cc1` [Compound 76, N-(1-(4-cyanobenzyl)piperidin-4-yl)-5-(4-(4-fluorobenzoyl)piperazine-1-carbonyl)picolinamide], the EC50 was under 500 nM. The result for `COc1ccc(C(=O)N2CCN(C(=O)c3ccc(C(=O)NC4CCN(Cc5ccc(C#N)cc5)CC4)nc3)CC2)cc1` [Compound 77, N-(1-(4-cyanobenzyl)piperidin-4-yl)-5-(4-(4-methoxybenzoyl)piperazine-1-carbonyl)picolinamide] reads under 500 nM. The result for `N#Cc1ccc(CN2CCC(NC(=O)c3ccc(C(=O)N4CCN(S(=O)(=O)c5ccc(F)cc5)CC4)cn3)CC2)cc1` [Compound 78, N-(1-(4-cyanobenzyl)piperidin-4-yl)-5-(4-(4-fluorophenylsulfonyl)piperazine-1-carbonyl)picolinamide] reads under 500 nM; that for `COc1ccc(S(=O)(=O)N2CCN(C(=O)c3ccc(C(=O)NC4CCN(Cc5ccc(C#N)cc5)CC4)nc3)CC2)cc1` [Compound 79, N-(1-(4-cyanobenzyl)piperidin-4-yl)-5-(4-(4-methoxyphenylsulfonyl)piperazine-1-carbonyl)picolinamide], 500 to 1000 nM; that for `N#Cc1ccc(CN2CCC(NC(=O)c3ccc(C(=O)N4CCN(C(=O)c5ccccc5)CC4)cn3)CC2)cc1` [Compound 80, 5-(4-benzoylpiperazine-1-carbonyl)-N-(1-(4-cyanobenzyl)piperidin-4-yl)picolinamide], 1000 to 5000 nM. As to `CC(C)(C)C(=O)N1CCN(C(=O)c2ccc(C(=O)NC3CCN(Cc4ccc(C#N)cc4)CC3)nc2)CC1` [Compound 81, N-(1-(4-cyanobenzyl)piperidin-4-yl)-5-(4-pivaloylpiperazine-1-carbonyl)picolinamide], the EC50 is 500 to 1000 nM. The result for `N#Cc1ccc(CN2CCC(NC(=O)c3ccc(C(=O)N4CCN(S(=O)(=O)c5ccccc5)CC4)cn3)CC2)cc1` [Compound 82, N-(1-(4-cyanobenzyl)piperidin-4-yl)-5-(4-(phenylsulfonyl)piperazine-1-carbonyl)picolinamide] reads 500 to 1000 nM. Next, `N#Cc1ccc(CN2CCC(NC(=O)c3ccc(C(=O)N4CCN(C5CCOCC5)CC4)cn3)CC2)cc1` [Compound 83, N-(1-(4-cyanobenzyl)piperidin-4-yl)-5-(4-(tetrahydro-2H-pyran-4-yl)piperazine-1-carbonyl)picolinamide]: over 10000 nM. The result for `CC(C)N1CCN(C(=O)c2ccc(C(=O)NC3CCN(Cc4ccc(C#N)cc4)CC3)nc2)CC1` [Compound 84, N-(1-(4-cyanobenzyl)piperidin-4-yl)-5-(4-isopropylpiperazine-1-carbonyl)picolinamide] reads 1000 to 5000 nM; that for `Cc1cc(CN2CCN(C(=O)c3ccc(C(=O)NC4CCN(Cc5ccccc5)CC4)nc3)CC2)no1` [Compound 85, N-(1-benzylpiperidin-4-yl)-5-(4-((5-methylisoxazol-3-yl)methyl)piperazine-1-carbonyl)picolinamide], 1000 to 5000 nM. In the case of `N#Cc1ccc(CN2CCC(NC(=O)c3cccc(C(=O)NC4CCN(Cc5ccc(C#N)cc5)CC4)n3)CC2)cc1` [Compound 86, N2,N6-bis(1-(4-cyanobenzyl)piperidin-4-yl)pyridine-2,6-dicarboxamide], the concentration giving a half-maximal response (EC50) lay in the range of 1000 to 5000 nM.

As for `O=C(NC1CCN(Cc2ccc(F)cc2)CC1)c1cccc(C(=O)NC2CCN(Cc3ccc(F)cc3)CC2)n1` [Compound 87, N2,N6-bis(1-(4-fluorobenzyl)piperidin-4-yl)pyridine-2,6-dicarboxamide], the EC50 lay within 1000 to 5000 nM.

Molecule `O=C(c1ccc(C(=O)N2CCN(CCc3ccccc3)CC2)nc1)N1CCN(Cc2ccc(F)cc2)CC1` [Compound 88, (4-(4-fluorobenzyl)piperazin-1-yl)(6-(4-phenethylpiperazine-1-carbonyl)pyridin-3-yl)methanone] gave an EC50 of 1000 to 5000 nM.

In turn, `N#Cc1ccc(CN2CCC(NC(=O)c3ccc(C(=O)N4CCN(C(=O)C5CCCCC5)CC4)cn3)CC2)cc1` [Compound 89, N-(1-(4-cyanobenzyl)piperidin-4-yl)-5-(4-(cyclohexanecarbonyl)piperazine-1-carbonyl)picolinamide] displayed a half-maximal effective concentration (EC50) of 1000 to 5000 nM.

In turn, `O=C(c1ccc(C(=O)N2CCN(CCc3ccccc3)CC2)nc1)N1CCN(c2ccccc2)CC1` [Compound 90, (4-phenethylpiperazin-1-yl)(5-(4-phenylpiperazine-1-carbonyl)pyridin-2-yl)methanone] registered an EC50 of over 10000 nM. For `CC(C)N1CCN(C(=O)c2ccc(C(=O)N3CCN(CCc4ccccc4)CC3)nc2)CC1` [Compound 91, (4-isopropylpiperazin-1-yl)(6-(4-phenethylpiperazine-1-carbonyl)pyridin-3-yl)methanone], the EC50 was over 10000 nM. Next, `O=C(c1ccc(C(=O)N2CCN(CCc3ccccc3)CC2)nc1)N1CCN(CCc2ccccc2)CC1` [Compound 92, pyridine-2,5-diylbis((4-phenethylpiperazin-1-yl)methanone)]: over 10000 nM; `O=C(c1cccc(C(=O)N2CCN(Cc3ccc(F)cc3)CC2)n1)N1CCN(CCc2ccccc2)CC1` [Compound 93, (4-(4-fluorobenzyl)piperazin-1-yl)(6-(4-phenethylpiperazine-1-carbonyl)pyridin-2-yl)methanone]: over 10000 nM; `O=C(c1cccc(C(=O)N2CCN(c3ccccc3)CC2)n1)N1CCN(Cc2ccc(F)cc2)CC1` [Compound 94, (4-(4-fluorobenzyl)piperazin-1-yl)(6-(4-phenylpiperazine-1-carbonyl)pyridin-2-yl)methanone]: over 10000 nM.

Molecule `N#Cc1ccc(CN2CCC(NC(=O)c3ccc(C(=O)N4CCN(CC5CCCCC5)CC4)cn3)CC2)cc1` [Compound 95, N-(1-(4-cyanobenzyl)piperidin-4-yl)-5-(4-(cyclohexylmethyl)piperazine-1-carbonyl)picolinamide] displayed an EC50 of under 500 nM. Next, `O=C(NC1CCN(Cc2ccccc2)CC1)c1ccc(C(=O)N2CCN(c3ccncc3)CC2)cn1` [Compound 96, N-(1-benzylpiperidin-4-yl)-5-(4-(pyridin-4-yl)piperazine-1-carbonyl)picolinamide]: over 10000 nM. The result for `O=C(NC1CCN(Cc2ccccc2)CC1)c1ccc(C(=O)N2CCN(c3ccccc3)CC2)cn1` [Compound 97, N-(1-benzylpiperidin-4-yl)-5-(4-phenylpiperazine-1-carbonyl)picolinamide] reads 1000 to 5000 nM.
